Test results published in patent publication US20240199590A1, “SOLID FORMS OF A SGC ACTIVATOR” (Boehringer Ingelheim International GmbH, priority 2022, published 2024).

How the values were obtained:
Assay type in all cases: physicochemical
[1] = Solid form stability (tendency to convert to a different solid form, high RH)
Protocol: (§1) Water sorption isotherms are determined using a dynamic vapor sorption system (Advantage 1, DVS, London, UKDVS Intrinsic Plus, Surface Measurement Systems, Allentown, PA).
(§2) Approximately 5-10 mg of solid is weighed into a tared aluminum pan. The samples are subjected to 0 to 90% RH stepwise with a step size of […] at 25° C. Equilibration criteria are dm/dt of 0.002% over 5 minutes or 360 minutes at a specified % RH. Each sample is equilibrated at each RH step for at least 60 min, and equilibrium is assumed if weight increase is less than 0.1% within one minute, and the maximum duration on each RH is 6 hours. Therefore, each sample is held at a given RH for 1 to 6 hours depending on how fast the equilibrium is reached
The amorphous of Compound 1 (10 mg) is added to a pan for Dynamic Vapor Sorption analysis. The solid is exposed stepwise from 40 to 95 to 0 to 95 to 0% RH at 25° C. Form III is isolated after completing the stepwise exposures.

[2] = Storage stability of samples of Form I at controlled temperature and relative humidity
Protocol: Samples of Form I were maintained for at least 9 months at 25°, and 60% and at least 6 months at 40° and 75% relative humidity.

[3] = Hygroscopicity (water sorption, dynamic vapor sorption); conditions: compared to the anhydrate (Form I) and monohydrate forms (Form III, Form V)
Protocol: as §1, §2

[4] = at least 6 months at 40° and 75% relative humidity
[5] = at least 9 months at 25°, and 60%

## CCOc1c(C(=O)O)cnn1-c1cccc(-c2cccc(C)c2OCc2ccc3c(c2C)CCN(C2CCOCC2)C3)n1 [Form I]
[1]; compared to the amorphous form
  stability as compared to the amorphous form of Compound 1: improved stability
[2]; [4]
  change in particle sized distribution on storage: no change in particle sized distribution
  changes in Raman spectra on storage: no
  increase in impurity levels on storage: no increase in impurity levels
  increase in water content on storage: no increase in water content
[2]; [5]
  change in particle sized distribution on storage: no change in particle sized distribution
  changes in Raman spectra on storage: no
  increase in impurity levels on storage: no increase in impurity levels
  increase in water content on storage: no increase in water content

## CCOc1c(C(=O)O)cnn1-c1cccc(-c2cccc(C)c2OCc2ccc3c(c2C)CCN(C2CCOCC2)C3)n1 [amorphous form of Compound 1]
[1]; high RH, converting to Form III
  stability of the solid form under high RH: not stable
[3]
  hygroscopicity: higher hygroscopicity
